Key:
Swiss mice = experiment: MK-801-induced locomotor hyperactivity; type: in vivo
Description: An actimeter device consisting of a cylinder (20 cm diameter, 9.5 cm height, Apelex, France) equipped with two perpendicular light beams located 1.5 cm above the floor was used. Mice from the transgenic batches (DAT^−/− and NMDA Nr1^neo−/−) were orally pretreated with either SAR218645 or vehicle and individually isolated in boxes for a period of 60 min. Animals were then placed in the actimeter device and locomotor activity (number of interrupted light beams) was recorded for a period of 30 or 60 min. Mice in which the expression of the dopamine transporter (DAT) was knocked out (i.e., the DAT^−/− mouse) have been proposed as a reliable model of the positive symptoms of schizophrenia. In these mice, dopamine levels in the synapse are dramatically elevated and these animals are hyperactive and agitated in behavioral tests. […] Immediately following amphetamine challenge, 30 min after MK-801 challenge, mice were placed in the actimeter devices and locomotor activity was recorded for a period of 30 (DAT^−/−) or 60 (NMDA Nr1^neo−/−) min.
Statistical analyses were performed using SAS V8.2 software (SAS Institute, Cary, NC, USA). The number of light beam breaks (motility count) recorded for 30 or 60 min were analyzed using one-way ANOVAs using a fixed factor of challenge or genotype and complementary post hoc (Newman-Keuls) tests were performed. […]

rat mGluR2 = rat mGluR2 (Rattus norvegicus, UniProt P31421); experiment: Ca2+ mobilization assay, HEK293 cells expressing rat mGluR2/Gα16
Sequence of rat mGluR2 (P31421 19-872): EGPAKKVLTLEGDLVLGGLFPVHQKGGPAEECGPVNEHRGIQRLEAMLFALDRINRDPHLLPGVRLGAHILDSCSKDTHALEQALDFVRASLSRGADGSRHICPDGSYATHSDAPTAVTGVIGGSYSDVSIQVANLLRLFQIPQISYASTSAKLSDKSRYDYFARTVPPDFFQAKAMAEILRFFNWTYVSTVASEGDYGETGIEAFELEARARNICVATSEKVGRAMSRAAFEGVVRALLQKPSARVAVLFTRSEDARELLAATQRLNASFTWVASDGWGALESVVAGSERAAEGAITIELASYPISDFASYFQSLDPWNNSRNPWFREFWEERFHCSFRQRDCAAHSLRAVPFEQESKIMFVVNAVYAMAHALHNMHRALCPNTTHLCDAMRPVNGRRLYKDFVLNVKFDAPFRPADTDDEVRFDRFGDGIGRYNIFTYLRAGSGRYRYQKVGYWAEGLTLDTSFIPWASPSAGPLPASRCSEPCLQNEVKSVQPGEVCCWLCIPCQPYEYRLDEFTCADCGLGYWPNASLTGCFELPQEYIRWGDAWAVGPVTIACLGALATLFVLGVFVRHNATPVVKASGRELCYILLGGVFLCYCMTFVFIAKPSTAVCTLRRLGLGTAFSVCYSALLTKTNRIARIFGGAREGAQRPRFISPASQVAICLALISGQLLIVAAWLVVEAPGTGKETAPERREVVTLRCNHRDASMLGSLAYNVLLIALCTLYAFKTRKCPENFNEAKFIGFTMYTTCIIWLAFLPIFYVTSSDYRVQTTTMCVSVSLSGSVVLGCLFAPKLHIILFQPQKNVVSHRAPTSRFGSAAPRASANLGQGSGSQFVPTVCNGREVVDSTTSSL
Description: Recombinant rat and human mGluR2 receptors were stably expressed in HEK293 Flp-in-T-REx cell lines with Gα16. Receptor and G-protein expression were induced with either tetracycline or doxycycline 20–24 hr before the experiment. Growth medium was replaced with HBSS buffer containing Ca^2+ and Mg^2+, 20 mM HEPES. Calcium mobilization was monitored using Fluo-4 or Calcium-3 dye on a Functional Drug Screening System (FDSS) reader (Hamamatsu Photonics, Hamamatsu City, Japan). Responses were measured as peak fluorescence intensity minus basal fluorescence. EC50 values were calculated using 4-parameter curve fitting.

CC1(C)CCc2cc(OC[C@@H]3Cn4ccc(=O)nc4O3)ccc21 [SAR218645, (S)-2-(1,1-dimethyl-indan-5-yloxymethyl)-2,3-dihydro-oxazolo[3,2-a]pyrimidin-7-one]
effect on locomotor activity (Swiss mice; MK-801 0.2 mg/kg ip, SAR218645 po): no effects
Minimal active dose (Swiss mice; dose-range 0.1–10, po, Swiss mice): >10 mg/kg
effect on response to EC10 glutamate (rat mGluR2; EC10 concentration (100 nM) of glutamate): enhanced sensitivity to glutamate
intrinsic agonism (compound alone) (rat mGluR2; absence of glutamate): no effect per se
effect on maximal response to glutamate (rat mGluR2; increasing concentrations of SAR218645): no significant increase
enhancement of glutamate potency (leftward shift of glutamate concentration-response curve) (rat mGluR2; increasing concentrations of SAR218645, HEK293 rat mGluR2/Gα16): approximately 25 fold

— PMC5062470, “The mGluR2 positive allosteric modulator, SAR218645, improves memory and attention deficits in translational models of cognitive symptoms associated with schizophrenia” (Scientific Reports, 2016)
